{
  "source": "paper PMC3352175",
  "about": "“Non-coding nucleotides and amino acids near the active site regulate peptide deformylase expression and inhibitor susceptibility in Chlamydia trachomatis” (Microbiology, 2011)",
  "target": "T1, chlamydial PDF (cPDF), peptide deformylase",
  "T1 construct": "gene def; C-terminal His6 tag (pET21), expressed in ArcticExpress E. coli, purified on TALON resin",
  "assay": "TNBSA end-point deformylation assay (A335), Lineweaver-Burk",
  "format": "biochemical, Chlamydia trachomatis",
  "conditions": "fMAS substrate; 50 mM HEPES pH 7.2, 10 mM NaCl, 37 °C, 10 min; mode not stated; read-out: Wild-type",
  "source_text": "TNBSA end-point deformylation assay (A335), Lineweaver-Burk on chlamydial PDF (cPDF), peptide deformylase",
  "data": [
    {"smiles": "CNC(=O)[C@H](Cc1c[nH]c2ccccc12)NC(=O)[C@@H](CC(=O)NO)CC(C)C", "note": "[GM6001, N-[(2R)-2-(hydroxamidocarbonylmethyl)-4-methylpentanoyl]-L-tryptophan methylamide]", "values": [
      {"measurement": "Ki", "result": "160 ± 35", "unit": "nM"}
    ]}
  ]
}
